Laboratory results published in US6479469B2, “Treatment of arthritis and compositions therefore” (priority 2000, dated 2002).
Entries after “also recorded” stand apart in the source; their conditions may differ.

How the values were obtained:
chondrocytes (BAC) = experiment: BAC growth assay (chondrocyte cell proliferation, Coulter count); type: cell-based, bovine; details: for effect on cell growth: 0-6 mM, serum 20%, FIG. 10; for effect on cell growth / effect on the proliferation of chondrocytes: BAC subculture 6; for effect on the proliferation of chondrocytes: 1 mg/ml, glucose 0.5 mg/ml, TGF-β 10 μg/ml, serum 10%, FIG. 8
Procedure: Cartilage slices were removed aseptically from bovine knee joint and digested with collagenase to obtain single cell chondrocytes. Both primary cultures and subcultures were established by procedures described previously (Chan C. and Anastassiades T., Biochem Cell Biol 74:233-240, 1996; Howard S. and Anastassiades T., J Rheumatol 20:2083-2094, 1993).For the growth assays, cells were seeded at 15,000 cells/well and 33,000 cells/well for the 24 and 6 well plates, respectively, in glucose free Dulbecco's modified Eagle's culture medium, base which was supplemented with glucose (1 mg/ml) and serum (10%). These cells were incubated in a humidified atmosphere of 95% air and 5% carbon dioxide at 37° C. On the following day, the medium was changed to fresh medium containing test materials of interest. The cells were harvested at time intervals and cell number determined using Coulter counter (Coulter Electronics Inc. Florida, USA). Results are expressed as the means of three replicate wells and each well was counted twice. The data are presented as mean ± SEM.
Initial studies examined the effect of 1 mg/ml of GlcN, GlcNac, GlcNpr and GlcNbu on the proliferation of chondrocytes (BAC subculture 6) maintained in medium supplemented with glucose (0.5 mg/ml), TGF-β (10 μg/ml) and serum (10%). […] The cells barely thrive at serum concentrations lower than 10% (data not shown).
Further experiments were carried out to determine whether the growth stimulation could be due to butyrate group or a mechanism solely dependent on GlcNbu. In this case, chondrocytes (BAC subculture 6) were maintained in culture in the presence of glucose (1 mg/ml), serum (20%) and various concentrations (0-6 mM) of sodium butyrate, GlcNbu and GlcN. […] Therefore, the growth stimulation observed is due to GlcNbu. The effect of GlcNbu at varying glucose medium concentrations (0-0.5 mg/ml) were evaluated using early and late subcultured chondrocytes.

[1] = test system: experimentally induced inflammatory arthritis in Lewis rats; experiment: Streptococcal cell wall induced inflammatory arthritis model, clinical assessment of hind legs; type: in vivo, rat; details: 18 days
Excerpt: The experimental arthritis was induced by injecting cell walls of streptococcal bateria intra-peritoneally into Lewis rats. The resulting arthritis leads to cartilage and bone destruction in the injected rat. This experimental model is considered to provide some of the most useful insights in the development of human inflammatory, destructive arthropathies.
Method: Inflammatory arthritis was induced in Lewis strain rats by a single intra-peritoneal injection of the streptococcal wall pepti-polysaccharide antigen, as described in Brahn E. “Animal models of rheumatoid arthritis. Clues to etiology and treatment.” Clin Orthop. 1991 Apr; (265): 42-53. Review. Van den Broek M F, van Bruggen M C, Simpson S A, Severijnen A J, van de Putte L B, van den Berg W B. “Flare-up reaction of streptococcal cell wall induced arthritis in Lewis and F344 rats: the role of T lymphocytes.” Clin Exp Immunol. 1990 Feb; 79 (2): 297-306. Chen W., Jin W, Cook M, Weiner H L, Wahl S M. “Oral delivery of group A streptococcal cell walls augments circulating TGF-beta and suppresses streptococcal cell wall arthritis.” J Immunol. 1998 Dec. 1; 161 (11): 6297-304. On the same day as the injection, the rats had their drinking water supplemented either with 5 mg or 50 mg of GlcN or GlcNBu in 400 ml of water. There were three rats in each of the above groups. The rats drank the water containing the above compounds in an unrestricted fashion. The drinking water was replenished, when finished, so that the rats drank the same concentrations of the compounds throughout the experimental observation period. Each animal consumed approximately between 20-30 ml of water each day for each of the groups. After 18 days of experimental observation, the rats' hind legs were visually inspected for clinical assessment of the development of arthritis.

[2] = humans, cited from earlier work
bovine chondrocytes = details: in vitro; cited from earlier work
[3] = test system: Bovine Articular Chondrocytes; experiment: Glycosaminoglycan synthesis by Bovine Articular Chondrocytes (35S incorporation); type: cell-based; details: 0.1 mM GlcNBu; 35S label 4 days; per well; control 82,000 CPM; FIG. 14
Procedure: Bovine articular chondrocytes were grown to confluency in 35 mm wells and labelled with ^35S for 4 days in the presence of different concentrations of GlcNBu. The Glycosaminoglycans (GAG) were isolated from the medium and the radioactivity incorporated into the isolated GAG was determined
With reference to FIG. 14, the results are expressed on a per well basis and represent the means and standard deviations from four replicate wells. […] The control (0 mM concentration of GlcNBu) is the first point on the left indicating 82,000 CPM and the lowest concentration of GlcNBu is 0.1 mM indicating 112,000 CPM.

dog with hip dysplasia = experiment: Dog Study-2, dog with hip dysplasia, daily journal and video record; type: in vivo; details: 500 mg per day on food, one week
Procedure: 1 Week administration to arthritic/dysplastic dogs @ 500 mg set daily dose. Daily Journal and Video record was kept as described under Dog Study-1.
The subject was a 16-year-old female labrador crossbreed which had hip dysplasia evident in both hind limbs due to either age or an injury sustained at the age of 9 years.
Phase 1 The MGD was administered at 500 mg per day for a period of one week in a solution poured onto food.

[4] = test system: mucopolysaccharides (glycosaminoglycans); details: Biochem. Pharmacol. (1973) 22:3018; cited from earlier work
[5] = test system: dog with osteoarthritis due to anterior cruciate ligament injury; experiment: Dog Study-1, osteoarthritic dog, daily journal and video record; type: in vivo
Procedure: 1 Week administration to arthritic/dysplastic dogs @500 mg set daily dose. A Daily Journal and Video record was kept.
The subject was a 9-year-old female collie crossbreed which had osteoarthritis due to a prior left anterior cruciate ligament injury (a previous tear now repaired). […] The animal is currently medicated with glucosamine at 500 mg per day.
For both Phase 1 and Phase 2 a video diary of a few minutes of two or three of the animal's exercise periods and a daily journal of casual observations was kept.

| Compound | effect on cell growth (chondrocytes (BAC); glucose 1 mg/ml) | effect on the proliferation of chondrocytes (chondrocytes (BAC)) | clinical assessment of arthritis in hind legs ([1]; 5 mg in 400 ml drinking water) | clinical assessment of arthritis in hind legs ([1]; 50 mg in 400 ml drinking water) | owner-observed mobility / behaviour (dog with hip dysplasia) | also measured |
| --- | --- | --- | --- | --- | --- | --- |
| N[C@@H](C=O)[C@@H](O)[C@H](O)[C@H](O)CO [GlcN, 2-amino-2-deoxy-D-glucose, reference compound] | decreased cell growth | inhibited cell growth compared to control | well-developed arthritis with swelling and redness in both of the hind lower legs | well-developed arthritis with swelling and redness in the right lower leg and less so in the left lower leg |  | serum levels after oral or IV administration ([2]; very large doses): serum levels cannot be detected; growth or survival of chondrocytes (bovine chondrocytes): does not support growth or even survival of chondrocytes |
| CC(=O)N[C@H]1C(O)O[C@H](CO)[C@@H](O)[C@@H]1O (stereo partly drawn) [GlcNac, N-acetylglucosamine, reference compound] |  | much reduced effect on cell growth |  |  |  | half-life compared to glucosamine ([2]; Clin. Ther. (1996) 18:1184): longer half-life |
| CCCC(=O)N[C@H]1C(O)O[C@H](CO)[C@@H](O)[C@@H]1O (stereo partly drawn) [GlcNbu, N-Butyryl-D-glucosamine (2-n-Butanamido-2-deoxy-D-glucopyranose)] | increased cell growth | significantly stimulated cell growth | normal hind lower legs and no clinical evidence of arthritis | minimal swelling in the right lower leg and probably a normal left lower leg | a period of improvement | cell growth at various serum concentrations (chondrocytes (BAC); GlcNbu 0.4-10 mM, glucose 1 mg/ml, 10% vs 20% serum, FIG. 9): more increase in cell growth at 20% than 10% serum; stimulation of cell growth at varying glucose medium concentrations (chondrocytes (BAC); glucose 0-0.5 mg/ml, early and late subcultured chondrocytes, FIGS. 11 and 12): higher in the absence of glucose or very low glucose concentration; radioactivity incorporated into the GAG [3]: 112,000 CPM |
| CCC(=O)N[C@H]1C(O)O[C@H](CO)[C@@H](O)[C@@H]1O (stereo partly drawn) [GlcNpr, N-propionylglucosamine] |  | much reduced effect on cell growth |  |  |  | incorporation of labeled glucosamine into mucopolysaccharides [4]: inhibits the incorporation of labeled glucosamine into mucopolysaccharides |
| CCCC(=O)[O-].[Na+] [sodium butyrate, reference compound] | decreased cell growth |  |  |  |  |  |
| N-Butyryl-D-glucosamine (2-n-Butanamido-2-deoxy-D-glucopyranose) [GlcNbu] |  |  |  |  | isolated examples of improvement | tolerability ([5]; 500 mg per day on food, one week): tolerated at least at the same level as glucosamine; adverse reactions ([5]; 500 mg per day, one week): no adverse reactions were observed; protective effects (mobility/stiffness) compared to glucosamine ([5]; Phase 1, 500 mg per day, one week, listed as MGD): at least as good as glucosamine; also recorded: no appreciable difference from baseline; observation after withdrawal ([5]; Phase 2, Day 7 after MGD discontinued, listed as MGD): recurrence of a slight limp; also recorded: much stiffer gait and a slight limp |
